Test results reported in patent publication US4820717A, “Antimicrobial aromatic derivatives substituted by an (omega amino) alkanol group and compositions containing them” (priority 1985, dated 1989).
Values after ≈ are worked out from the molar mass of the structure shown.

Key:
[1] = tested on: Escherichia Coli CNCM 54125; assay: Bactericidal activity (MBC), strain 1; format: cell-based; conditions: 20 min, strain 1, 20 minutes of contact, read-out: Minimum bactericidal concentration (MBC)
Description: (§1) The bactericidal activity of the products according to the invention has been analyzed on various strains by the method described hereafter:
(§2) A bacterial inoculum is placed in contact with different dilutions of the product to be tested, and this for a limited period of time. At the end of contact, an aliquot part of the mixture bacterial suspension/product is deposited on the surface of an agar culture medium containing an agent neutralizing the antibacterial activity of the product. The bactericidal concentration retained is the smallest concentration of the product from which bacteria stop growing. Said concentration is expressed in μg/ml.
(§3) The bacterial strains selected for the analysis are:
1--Escherichia Coli CNCM 54125;
(§4) The second strain is supported on a Worgel Fergusson medium, the other strains being supported on Tryptic Soy Agar-Difco (TSA) commercialized by Difco.
(§5) After a 24-hour culture period at 37° C., the microbial growth is collected by means of glass beads and of 10 ml of diluent containing 1 g of tryptone and 8.5 g of sodium chloride in 1000 ml of distilled water. The formed suspension is stirred and the percentage of light transmission at 620 nm is measured with a spectrophotometer:
(§6) The bacterial inoculum corresponds to a 1/20th dilution of this bacterial suspension.
(§7) Plates equipped with cupules receive different dilutions of the product to be analyzed. These dilutions are placed in contact with the different bacterial suspensions by means of a multiple-center inoculator. After 20 minutes of contact, aliquot parts are transferred by means of said inoculator on the surface of an agar medium (TSA) in Petri dishes, containing an activity-neutralizing agent, namely 20 g of lubrol W, 25 g of Tween 80 and 2.5 g of sodium thiosulfate in 1000 ml of TSA (Difco). The efficiency of the neutralizing agent is controlled for each product to be analyzed by depositing on the surface of the culture medium an aliquot part of the dilution of the product to be analyzed. After drying, the corresponding inoculum is deposited in the same place. An inoculum control is performed on an agar medium with or without neutralizing agent. Readings are taken after 48 hours of incubation at 37° C.

[2] = tested on: Encapsulated klebsiella pneumoniae R030; assay: Bactericidal activity (MBC), strain 2; format: cell-based; conditions: 20 min, strain 2, 20 minutes of contact, read-out: Minimum bactericidal concentration (MBC)
Description: as §1, §2, §3
2--Encapsulated klebsiella pneumoniae R030;
as §4, §5, §6, §7

[3] = tested on: Pseudomonas aeruginosa CNCM A22; assay: Bactericidal activity (MBC), strain 3; format: cell-based; conditions: CNCMA22, 20 min, strain 3, 20 minutes of contact, read-out: Minimum bactericidal concentration (MBC)
Description: as §1, §2, §3
3--Pseudomonas aeruginosa CNCM A22;
as §4, §5, §6, §7

[4] = tested on: Streptococcus faecalis CNCM 5855; assay: Bactericidal activity (MBC), strain 4; format: cell-based; conditions: Enterococcus faecalis, CNCM5855, 20 min; strain 4, 20 minutes of contact; read-out: Minimum bactericidal concentration (MBC)
Description: as §1, §2, §3
4--Streptococcus faecalis CNCM 5855;
as §4, §5, §6, §7

[5] = tested on: Staphylococcus aureus CNCM 53154; assay: Bactericidal activity (MBC), strain 5; format: cell-based; conditions: CNCM53154, 20 min, strain 5, 20 minutes of contact, read-out: Minimum bactericidal concentration (MBC)
Description: as §1, §2, §3
5--Staphylococcus aureus CNCM 53154.
as §4, §5, §6, §7

[6] = tested on: Candida albicans CNCM 1180; assay: Antifungal activity (MFC), strain 1; format: cell-based; conditions: 20 min; yeast strain 1; read-out: Minimum fongicidal concentration (MFC)
Description: as §2, §7
(§8) The antifungal activity of the products according to the invention was also determined with the aforedescribed method.
(§9) The fungal strains selected for the analysis are:
1--Candida albicans CNCM 1180;
(§10) These strains are supported on a Sabouraud Dextrose agar medium commercialized by Difco; the technique used is the same as that used in the analysis of the antibacterial activity. After 48 hours of culture at 37° C., the microbial growth is collected with glass beads and 5 ml of diluent containing 1 g of tryptone and 8.5 g of sodium chloride in 1000 ml of distilled water; 5 ml of the diluent are then added. […] A 1/100th dilution of this suspension, observed between slides under a microscope 40-lens, should show 10 cells per frame, this corresponding to 1,000,000 yeasts per ml.

Candida tropicalis 3834 = assay: Antifungal activity (MFC), strain 2; format: cell-based; conditions: 20 min; yeast strain 2; read-out: Minimum fongicidal concentration (MFC)
Description: as §2, §7, §8, §9
2--Candida tropicalis 3834;
as §10

Candida parakruzei 3918 = assay: Antifungal activity (MFC), strain 3; format: cell-based; conditions: 20 min; yeast strain 3; read-out: Minimum fongicidal concentration (MFC)
Description: as §2, §7, §8, §9
3--Candida parakruzei 3918;
as §10

[7] = tested on: Torulopsis glabrata 072023; assay: Antifungal activity (MFC), strain 4; format: cell-based; conditions: 20 min; yeast strain 4; read-out: Minimum fongicidal concentration (MFC)
Description: as §2, §7, §8, §9, §10

[8] = Acute toxicity by oral route in mice; conditions: mouse, in vivo, per os, male CD1 mice, 14 days observation
Description: Acute toxicity was tested by oral route in mice. This test was carried out with male mice of CD1 strain, obtained from the Charles Reever breeding farm. Each batch was composed of 5 animals of body weight varying between 24 and 30 g kept in the same cage. The animals were kept fasting for 6 hours before the treatment. For every test, the product, placed in suspension in a 10% solution of gum arabic, was administered by forcible feeding with an oesophageal probe. Food was then served to the animals 4 hours after the forcible feeding and the animals were kept under observation for a period of 14 days after the administration. During that period, the death rate is recorded for each batch of animals used in the experiment and, wherever possible, the LD50 is determined by the method of J. T. Litchfield and F. Wilcoxon, J. Pharmacol. 1949, 95, 99-113.
The results are given in mg of substance tested per kg of body weight. They are compiled in Table III below.

SMILES	MBC [1]	MBC [2]	MBC [3]	MBC [4]	MBC [5]	MFC [6]	MFC (Candida tropicalis 3834)	MFC (Candida parakruzei 3918)	MFC [7]	LD50 at 336 h [8]
OCC(CCN1CCCCCC1)c1c(Cl)cccc1Cl (centres unmarked) [SR 43 703 A]	600 µg/mL (≈ 1900 µM)	600 µg/mL (≈ 1900 µM)	400 µg/mL (≈ 1260 µM)	800 µg/mL (≈ 2530 µM)	1000 µg/mL (≈ 3160 µM)	–	–	–	–	–
CN1CCN(CCC(CO)c2cccc3ccccc23)CC1 (centres unmarked) [SR 43 291A, reference compound]	5000 µg/mL (≈ 16800 µM)	3000 µg/mL (≈ 10100 µM)	1000 µg/mL (≈ 3350 µM)	> 10000 µg/mL	8000 µg/mL (≈ 26800 µM)	–	–	–	–	–
OCC(CCN1CCC(Cc2ccccc2)CC1)c1ccccc1 (centres unmarked) [SR 43 705 A]	500 µg/mL (≈ 1550 µM)	500 µg/mL (≈ 1550 µM)	500 µg/mL (≈ 1550 µM)	500 µg/mL (≈ 1550 µM)	500 µg/mL (≈ 1550 µM)	–	–	–	–	–
OCC(CCCN1CCCCC1)c1cccc2ccccc12 (centres unmarked) [SR 43 087 A]	1500 µg/mL (≈ 5040 µM)	1000 µg/mL (≈ 3360 µM)	800 µg/mL (≈ 2690 µM)	2000 µg/mL (≈ 6720 µM)	800 µg/mL (≈ 2690 µM)	1000 µg/mL (≈ 3360 µM)	1000 µg/mL (≈ 3360 µM)	1000 µg/mL (≈ 3360 µM)	5000 µg/mL (≈ 16800 µM)	–
CC1CCN(CCCC(CO)c2cccc3ccccc23)CC1 (centres unmarked) [SR 43 290 A]	1500 µg/mL (≈ 4820 µM)	800 µg/mL (≈ 2570 µM)	800 µg/mL (≈ 2570 µM)	4000 µg/mL (≈ 12800 µM)	800 µg/mL (≈ 2570 µM)	–	–	–	–	–
CC(C)N(CCC(CO)c1cccc2ccccc12)C(C)C (centres unmarked) [SR 43 121 A]	1500 µg/mL (≈ 5010 µM)	1500 µg/mL (≈ 5010 µM)	1500 µg/mL (≈ 5010 µM)	800 µg/mL (≈ 2670 µM)	800 µg/mL (≈ 2670 µM)	–	–	–	–	300 to 400 mg/kg
OCC(CCN1CCCCCC1)c1ccc(Cl)c(Cl)c1 (centres unmarked) [SR 43 803 A]	400 µg/mL (≈ 1260 µM)	400 µg/mL (≈ 1260 µM)	500 µg/mL (≈ 1580 µM)	400 µg/mL (≈ 1260 µM)	400 µg/mL (≈ 1260 µM)	1000 µg/mL (≈ 3160 µM)	500 µg/mL (≈ 1580 µM)	500 µg/mL (≈ 1580 µM)	2000 µg/mL (≈ 6320 µM)	–
CCN(CC)CCCCCCCCCC(CO)c1cccc2ccccc12 (centres unmarked) [SR 43 826 A]	50 µg/mL (≈ 135 µM)	50 µg/mL (≈ 135 µM)	50 µg/mL (≈ 135 µM)	50 µg/mL (≈ 135 µM)	50 µg/mL (≈ 135 µM)	250 µg/mL (≈ 676 µM)	50 µg/mL (≈ 135 µM)	50 µg/mL (≈ 135 µM)	250 µg/mL (≈ 676 µM)	–
CCN(CC)CCCCCCC(CO)c1cccc2ccccc12 (centres unmarked) [SR 43 940 A]	50 µg/mL (≈ 153 µM)	50 µg/mL (≈ 153 µM)	50 µg/mL (≈ 153 µM)	50 µg/mL (≈ 153 µM)	50 µg/mL (≈ 153 µM)	–	–	–	–	–
OCC(CCN1CCCCCC1)c1ccc(Cl)cc1Cl (centres unmarked) [SR 43 802 A]	1000 µg/mL (≈ 3160 µM)	1000 µg/mL (≈ 3160 µM)	1000 µg/mL (≈ 3160 µM)	2000 µg/mL (≈ 6320 µM)	5000 µg/mL (≈ 15800 µM)	–	–	–	–	–
OCC(CCN1CCc2ccccc2C1)c1cccc2ccccc12 (centres unmarked) [SR 43 247 A]	300 µg/mL (≈ 905 µM)	300 µg/mL (≈ 905 µM)	300 µg/mL (≈ 905 µM)	300 µg/mL (≈ 905 µM)	500 µg/mL (≈ 1510 µM)	1000 µg/mL (≈ 3020 µM)	500 µg/mL (≈ 1510 µM)	1000 µg/mL (≈ 3020 µM)	2000 µg/mL (≈ 6030 µM)	–
OCC(CCN1CCCCC1)c1ccc2ccccc2c1 (centres unmarked) [SR 43 154 A]	2000 µg/mL (≈ 7060 µM)	1500 µg/mL (≈ 5290 µM)	800 µg/mL (≈ 2820 µM)	1500 µg/mL (≈ 5290 µM)	1000 µg/mL (≈ 3530 µM)	–	–	–	–	–
Cl.OCC(CCN1CCC(Cc2ccccc2)CC1)c1ccc(Cl)c(Cl)c1 (centres unmarked) [SR 43 969 A, 4-(4-benzylpiperidino)-2-(3,4-dichlorophenyl)butanol hydrochloride]	50 µg/mL	100 µg/mL	500 µg/mL	100 µg/mL	50 µg/mL	50 µg/mL	50 µg/mL	100 µg/mL	500 µg/mL	–
